Read-outs that look alike come from different tables or passages of the source.
Columns and labels:
[1] = test system: HIV-1 replication in latently HIV-1 infected lymphocytic ACH-2 cells; assay type: cell-based; details: for Induction of HIV-1 replication by the agent alone, ACH-2 cells: data not shown
IP HDAC4 = IP HDAC4 (Homo sapiens, UniProt P56524); assay type: biochemical
Protocol: (§1) Cell-Based Human HDAC1 and HDAC4 Assays. […] Then, 1000 micrograms of extracts were diluted in IP buffer up to 1 mL and pre-cleared by incubating with 20 microL of A/G plus Agarose (Santa Cruz) for 30 min to 1 h on a rocking table at 4° C. Supernatants were transferred into a new tube, and the antibodies (around 3 to 4 μg) were added and IP was allowed to proceed overnight at 4° C. on a rocking table. The antibodies used were HDAC1 (Abcam) and HDAC4 (Sigma). As the negative control, the same amount of protein extracts were immunoprecipitated with the corresponding purified IgG (Santa Cruz). On the next day, 20 microL of A/G and Agarose (Santa Cruz) were added to each IP, and incubation was continued for 2 h. The beads were recovered by brief centrifugation and washed with cold IP buffer several times. The samples were than washed twice in PBS and re-suspended in 20 microL of sterile PBS. The HDAC assay was carried out according to the supplier's instructions (Upstate). Briefly, samples immunoprecipitated with the HDAC4 and HDAC1 or with purified IgG were pooled separately to homogenise all samples. Then, 10 microL of the IP was incubated with a previously labelled ^3H-Histone H4 peptide linked with streptavidine agarose beads (Upstate). In detail, 120 000 CPM of the H4-^3H-acetyl-peptide was used for each tube and incubated in 1 HDAC buffer with 10 microL of the sample in the presence or absence of HDAC inhibitors with a final volume of 200 μL. Those samples were incubated overnight at 37° C. in slow rotation. On the next day, 50 μL of a quenching solution was added, and 100 microL of the samples were counted in duplicate after brief centrifugation in a scintillation counter.

Maize HD1-A = Maize HD1-A (Zea mays, UniProt Q7XAX9); experiment: Maize HD1-A enzyme inhibition in vitro; assay type: biochemical
Protocol: (§2) Maize HD2, HD1-B, and HD1-A Enzyme Inhibition in Vitro. Radioactively labelled chicken core histones were used as the enzyme substrate according to established procedures [referenced in: Mai et al., 2006]. The enzyme liberated tritiated acetic acid from the substrate, which was quantified by scintillation counting. The IC50 values are the results of triple determinations. A 50 μL sample of maize enzyme (at 30° C.) was incubated (30 min) with 10 microL of total [^3H]acetate-prelabelled chicken reticulocyte histones (2 mg/mL). The reaction was stopped by the addition of 36 microL of 1 M HCl/0.4 M acetate and 800 microL of ethyl acetate. After centrifugation (10 000 g, 5 min), an aliquot of 600 microL of the upper phase was counted for radioactivity in 3 mL of liquid scintillation cocktail. The compounds were tested at a starting concentration of 40 microM, and active substances were diluted further. TSA and SAHA were used as the reference compounds, and blank solvents were used as negative controls [Mai et al. 2006].

Maize HD1-B = Maize HD1-B (Zea mays, UniProt Q9ZTP8); experiment: Maize HD1-B enzyme inhibition in vitro; assay type: biochemical
Protocol: as §2

mouse HDAC1 = mouse HDAC1 (Mus musculus, UniProt O09106); experiment: Mouse HDAC1 enzyme assay; assay type: biochemical
Protocol: Mouse HDAC1 Enzyme Assay. […] HDAC activity was determined using [^3H]acetate-prelabelled chicken reticulocyte histones as the substrate. Mouse HDAC1 (50 microL) was incubated with different concentrations of compounds for 15 min on ice, and 10 μL of total [^3H]acetate-prelabelled chicken reticulocyte histones (2 mg/mL) were added, resulting in a concentration of 41 microM. The mixture was incubated at 37° C. for 1 h. The reaction was stopped by the addition of 50 microL of 1 M HCl/0.4 M acetylacetate and 1 mL ethyl acetate. After centrifugation at 10 000 g for 5 min, an aliquot of 600 microL of the upper phase was counted for radioactivity in a 3 mL liquid scintillation cocktail [Mai et al., 2006].

IP HDAC1 = IP HDAC1 (Homo sapiens, UniProt Q13547); experiment: Human HDAC1 assay on immunoprecipitate (IP) from U937 cells; assay type: biochemical
Protocol: as §1

HDACs = experiment: HDAC class selectivity (HDACs inhibited); assay type: biochemical; details: Class 1 selective or NS (non-selective)
[2] = test system: HIV-1 replication in latently HIV-1 infected monocytoid U1 cells; assay type: cell-based
[3] = test system: Non-infected H9 and U937, HIV-1 infected H9IIIB, ACH-2 and U1 cells; experiment: Selective killing, MTT cell viability, infected versus non-infected cells; assay type: cell-based; details: seven days
Source text: Cell viability assay. Cell viability was quantitated using the highly standardised methyl tetrazolium (MTT) procedure (described in detail in: Savarino A, Calosso L, Piragino A, Martini C, Gennero L, Pescarmona G P, Pugliese A. Modulation of surface transferrin receptors in lymphoid cells de novo infected with human immunodeficiency virus type-1. Cell Biochem Funct. 1999 March; 17(1):47-55). Absorbance values were generated at a wavelength of 450 nm using 96-well ELISA readers and subtracted of the blank values using cell culture media in the absence of cells. Cell viability in the presence of the test compounds was expressed as a percentage of the cell viability of control untreated cell cultures. For testing of selective killing, Non-infected H9, and U937, and HIV-1 infected HIIIB, ACH-2, and U1 cells were incubated with the test compounds for seven days, and cell viability was measured as described above.

[4] = test system: HIV-1 LTR in Jurkat A1 cells; assay type: cell-based
latent HIV-1 = details: cited from earlier work
our cell lines = experiment: Toxicity of auranofin to the cell lines used; assay type: cell-based; details: concentrations approx. two orders of magnitude superior to those of the present study, data not shown
Source text: Cell viability assay. Cell viability was quantitated using the methyl tetrazolium (MTT) procedure. Absorbance values were generated at a wavelength of 550 nm using 96-well ELISA readers and subtracted of the blank values using cell culture media in the absence of cells. Cell viability in the presence of the test compounds was expressed as a percentage of the cell viability of control untreated cell cultures.

[5] = test system: HIV-1 LTR in quiescently infected Jurkat 8.4 cells; experiment: HIV-1 LTR-controlled GFP expression, flow cytometry, Jurkat clone 8.4; assay type: cell-based; details: for LTR-controlled GFP expression, Jurkat 8.4 cells: 72 h, gated live cells
[6] = test system: NF-kappaB (p65/p50) in Jurkat 8.4 cells; experiment: NF-kappaB nuclear translocation, colorimetric p65 assay; assay type: cell-based; design: dose or concentration left out as unconfirmed; details: auranofin, different incubation times, relative to TNF-alpha 1.5 h
Protocol: Detection of NF-kappaB nuclear translocation. Nuclear extracts from control Jurkat 8.4 cells and cells treated with auranofin at different times of incubation were obtained using a nuclear extraction kit (Chemicon International), following the Manufacturer's instructions. NF-kappaB nuclear translocation was detected using a colorimetric transcription factor assay (Millipore) for the p65 subunit. Results were expressed as a percentage of the signal obtained in cells incubated with the potent NF-kappaB stimulating cytokine TNF-alpha (5 ng/ml) for 1.5 h, at which the peak of nuclear translocation of NF-kappaB is reached.

Maize HD1-A, sequence (Q7XAX9 entry or part of it): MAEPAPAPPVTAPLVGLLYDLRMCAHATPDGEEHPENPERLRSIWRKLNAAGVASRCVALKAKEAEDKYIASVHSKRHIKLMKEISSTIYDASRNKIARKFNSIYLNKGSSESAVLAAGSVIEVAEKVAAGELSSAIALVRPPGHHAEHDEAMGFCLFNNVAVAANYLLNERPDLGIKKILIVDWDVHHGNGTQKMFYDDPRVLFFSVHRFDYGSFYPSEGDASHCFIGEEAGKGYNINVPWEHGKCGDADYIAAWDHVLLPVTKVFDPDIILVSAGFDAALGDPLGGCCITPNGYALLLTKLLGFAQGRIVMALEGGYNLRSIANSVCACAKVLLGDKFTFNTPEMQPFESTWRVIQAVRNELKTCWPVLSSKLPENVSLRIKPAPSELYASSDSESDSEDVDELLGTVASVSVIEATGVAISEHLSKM
Maize HD1-B, sequence (Q9ZTP8 entry or part of it): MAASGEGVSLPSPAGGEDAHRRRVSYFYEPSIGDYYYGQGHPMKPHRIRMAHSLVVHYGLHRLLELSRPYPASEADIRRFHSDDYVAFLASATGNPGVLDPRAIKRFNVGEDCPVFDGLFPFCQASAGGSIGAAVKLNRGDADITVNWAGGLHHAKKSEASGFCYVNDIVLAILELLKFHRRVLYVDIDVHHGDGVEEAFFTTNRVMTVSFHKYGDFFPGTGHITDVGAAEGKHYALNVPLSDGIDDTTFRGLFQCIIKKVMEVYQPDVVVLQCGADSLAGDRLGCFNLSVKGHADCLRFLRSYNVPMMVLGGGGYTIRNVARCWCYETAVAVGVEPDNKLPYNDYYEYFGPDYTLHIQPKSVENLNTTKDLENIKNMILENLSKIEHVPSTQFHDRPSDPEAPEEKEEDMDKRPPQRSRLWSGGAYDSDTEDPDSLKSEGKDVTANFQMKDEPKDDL
IP HDAC4, sequence (P56524 whole entry): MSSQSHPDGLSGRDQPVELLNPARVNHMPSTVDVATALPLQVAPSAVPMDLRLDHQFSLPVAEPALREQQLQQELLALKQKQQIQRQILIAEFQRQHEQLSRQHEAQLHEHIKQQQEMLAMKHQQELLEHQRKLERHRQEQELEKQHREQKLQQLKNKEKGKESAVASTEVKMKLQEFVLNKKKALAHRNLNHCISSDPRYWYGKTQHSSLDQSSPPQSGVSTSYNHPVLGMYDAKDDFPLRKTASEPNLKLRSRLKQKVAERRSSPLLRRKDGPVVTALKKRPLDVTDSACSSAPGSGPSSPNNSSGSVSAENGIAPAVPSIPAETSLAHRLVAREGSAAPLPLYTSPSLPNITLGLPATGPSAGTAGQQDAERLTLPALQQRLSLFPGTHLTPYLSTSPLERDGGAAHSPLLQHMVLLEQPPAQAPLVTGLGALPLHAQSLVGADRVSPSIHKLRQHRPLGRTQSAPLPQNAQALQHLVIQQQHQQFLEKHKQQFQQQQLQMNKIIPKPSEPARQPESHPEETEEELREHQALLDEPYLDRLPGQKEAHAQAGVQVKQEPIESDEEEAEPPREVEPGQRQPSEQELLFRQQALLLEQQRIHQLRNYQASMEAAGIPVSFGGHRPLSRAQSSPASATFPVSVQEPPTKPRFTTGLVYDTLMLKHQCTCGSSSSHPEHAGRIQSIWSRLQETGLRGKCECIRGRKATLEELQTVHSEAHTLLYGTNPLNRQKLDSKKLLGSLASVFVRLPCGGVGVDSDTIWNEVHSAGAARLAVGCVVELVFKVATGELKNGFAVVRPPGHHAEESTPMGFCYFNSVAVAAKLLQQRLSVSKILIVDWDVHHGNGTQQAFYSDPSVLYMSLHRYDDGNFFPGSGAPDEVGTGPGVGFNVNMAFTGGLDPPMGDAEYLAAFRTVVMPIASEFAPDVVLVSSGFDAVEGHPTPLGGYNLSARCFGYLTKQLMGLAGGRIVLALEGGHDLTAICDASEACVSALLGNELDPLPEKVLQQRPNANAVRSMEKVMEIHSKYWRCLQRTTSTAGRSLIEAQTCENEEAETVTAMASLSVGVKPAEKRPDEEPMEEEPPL
IP HDAC1, sequence (Q13547 whole entry): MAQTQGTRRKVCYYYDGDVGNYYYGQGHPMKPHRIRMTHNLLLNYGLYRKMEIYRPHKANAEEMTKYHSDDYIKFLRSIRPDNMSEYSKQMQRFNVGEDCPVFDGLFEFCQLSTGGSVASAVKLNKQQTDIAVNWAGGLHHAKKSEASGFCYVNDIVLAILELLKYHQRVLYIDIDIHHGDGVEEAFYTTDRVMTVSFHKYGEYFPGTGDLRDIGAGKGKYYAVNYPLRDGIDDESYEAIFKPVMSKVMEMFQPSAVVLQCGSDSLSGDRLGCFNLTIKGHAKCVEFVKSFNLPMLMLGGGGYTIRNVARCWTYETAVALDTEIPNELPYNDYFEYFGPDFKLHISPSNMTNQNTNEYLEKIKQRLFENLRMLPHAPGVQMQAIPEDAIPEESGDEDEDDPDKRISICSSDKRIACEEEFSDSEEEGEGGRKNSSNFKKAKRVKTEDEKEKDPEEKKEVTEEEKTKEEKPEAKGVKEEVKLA
mouse HDAC1, sequence (O09106 whole entry): as the sequence (Q13547 whole entry) above, with R8K, D399E, E424D counted along it

Row | Molecule | inhibition at 5 µM (IP HDAC4) [%] | IC50 (Maize HD1-A) [nM] | IC50 (Maize HD1-B) [nM] | IC50 (mouse HDAC1) [nM] | inhibition at 5 µM (IP HDAC1) [%] | HDACs inhibited (HDACs) | other results
1 | O=C([O-])CN(CC(=O)[O-])CC(=O)[O-].[Fe+3] [FeNTA, iron nitriloacetate] | – | – | – | – | – | – | Induction of HIV-1 replication by the agent alone, ACH-2 cells [1]: dose-dependently induced HIV-1 replication
2 | CCC(C(=O)Nc1ccc(/C=C/C(=O)NO)cc1)c1ccccc1 (stereo not shown) [MC 1864] | 60.4 | 64 | 89 | 305 | 55 | – | –
3 | Nc1ccccc1NC(=O)c1ccc(CNC(=O)OCc2cccnc2)cc1 [MS 275] | – | – | – | – | 65.4 | Class 1 | Concentration range of activity in inducing HIV-1 escape from latency, ACH-2 cells ([1]; day 3, concentration-response 0.001-1 μM): nanomolar range; Combined HIV-1 promoting effect of HDACi with BSO, ACH-2 cells ([1]; percentage-of-synergism graph, three days): synergistic effect; Concentration range of activity in inducing HIV-1 escape from latency, U1 cells ([2]; not shown): nanomolar range
4 | O=C(/C=C/c1ccc(NC(=O)C(c2ccccc2)c2ccccc2)cc1)NO [MC 1855] | 0 | 55 | 162 | 128 | 78.7 | Class 1 | Selective killing of HIV-1 infected cells versus uninfected counterparts [3]: selective killing of HIV-1-infected cells
5 | O=C(/C=C/c1ccc(NC(=O)C(Cc2ccccc2)c2ccccc2)cc1)NO (stereo not shown) [MC 1895, 3-[4-(2,3-Diphenylpropionylamino)phenyl]-N-hydroxy-2-propenamide] | 16.1 | 74 | 133 | 83 | 72.5 | Class 1 | –
6 | O=C(CCCCCCC(=O)Nc1ccccc1)NO [SAHA, suberoylanilide hydroxamic acid] | – | – | – | – | – | – | LTR-controlled GFP expression, Jurkat A1 cells ([4]; 72 h): induction of LTR-controlled expression of green-fluorescent protein (GFP)
7 | CCCC(CCC)C(=O)O [VA, valproic acid] | – | – | – | – | – | – | EC50, HIV-1 escape from latency (latent HIV-1): millimolar range
8 | gold(1+); 3,4,5-triacetyloxy-6-(acetyloxymethyl)oxane-2-thiolate; triethylphosphanium [auranofin] | – | – | – | – | – | – | Effect on HIV-1 replication (p24), ACH-2 cells ([1]; 0.125-0.5 μM, 24 h and 72 h): increased HIV-1 replication in a time- and dose-dependent manner; Combined HIV-1 activating effect with BSO, ACH-2 cells ([1]; auranofin plus BSO, percentage-of-synergism surface, three days): synergistic HIV-1 activating effects; Combined HIV-1 activating effect with FeNTA, ACH-2 cells ([1]; percentage-of-synergism surface, three days): synergistic HIV-1 activating effects; Toxicity to cell lines (our cell lines): toxic to our cell lines; LTR-controlled GFP expression, Jurkat 8.4 cells [5]: dose-dependent shift in fluorescence; GFP expression in combination with HDACI (MC2113), Jurkat 8.4 cells ([5]; auranofin 0.25 microM plus MC2113 1 microM): recruited the HDACi-unresponsive cells into the responding cell population; LTR-controlled GFP expression, Jurkat A1 cells ([4]; 72 h): induction of LTR-controlled expression of green-fluorescent protein (GFP); NF-kappaB (p65) in nuclear extracts [6]: time-dependent NF-kappaB accumulation within the nuclei; Effect on HIV-1 replication (p24), U1 cells ([2]; 0.125-0.5 μM, 24 h and 72 h): increased HIV-1 replication in a time- and dose-dependent manner; Combined HIV-1 activating effect with MC2113, U1 cells ([2]; auranofin 0.25 μM plus MC2113 1 μM, 24 h): synergistic
9 | CCC(C(=O)Nc1ccc(/C=C/C(=O)NO)cc1)c1ccc2ccccc2c1 (stereo not shown) [MC 2113] | 22.4 | 69 | 62 | 560 | 64.9 | Class 1 | –
10 | CCC(C(=O)Nc1ccc(/C=C/C(=O)NO)cc1)c1cccc2ccccc12 (stereo not shown) [MC 2111] | 0 | 42 | 58 | 620 | 73.6 | Class 1 | –
11 | CCCCS(=N)(=O)CCC(N)C(=O)O (stereo not shown) [BSO, buthionine sulfoximine] | – | – | – | – | – | – | Induction of HIV-1 replication by the agent alone, ACH-2 cells ([1]; concentrations up to 500 μM): had no effect; Induction of HIV-1 replication by the agent alone, ACH-2 cells [1]: did not significantly induce HIV-1 replication; GFP expression in combination with HDACi (MS-275), Jurkat A1 cells ([4]; 72 h): recruited HDACi-insensitive cells into the responding cell population; LTR-controlled GFP expression, Jurkat A1 cells ([4]; 72 h): induced LTR activation in a small proportion of cells; Induction of HIV-1 replication by the agent alone, U1 cells ([2]; data not shown): did not significantly induce HIV-1 replication
12 | N.N.[Cl][Pt][Cl] [cisplatin] | – | – | – | – | – | – | Concentration range activating latent HIV-1 ([4]; cell line models for HIV-1 latency): nanomolar range; Concentration range activating quiescent HIV-1 (latent HIV-1; Spandidos et al., 1990): micromolar
13 | CC(C)C(C(=O)Nc1ccc(C(=O)NO)cn1)c1ccccc1 (stereo not shown) [MC 2195] | 93.1 | 8 | 11 | 69 | 46.7 | Class 1 | –
14 | arsenic trioxide | – | – | – | – | – | – | LTR-controlled GFP expression, Jurkat 8.4 cells [5]: dose-dependent shift in fluorescence; LTR-controlled GFP expression, Jurkat A1 cells ([4]; 72 h): increased in response to arsenic trioxide in a concentration-dependent manner
15 | CC(C(=O)Nc1ccc(/C=C/C(=O)NO)cc1)c1ccccc1 (stereo not shown) [MC 1857] | – | 80 | 72 | 291 | 79.3 | – | –

— patent US8785493B2, “Treatment of retroviral reservoirs exploiting oxidative stress” (Istituto Superiore di Sanita, priority 2008, dated 2014)
